Experimental data from PMC10469688, “Comparative pharmacokinetics and safety evaluation of high dosage regimens of Andrographis paniculata aqueous extract after single and multiple oral administration in healthy participants” (Frontiers in Pharmacology, 2023).
Where two headings read alike, the source gives them in different places. Each block holds one compound with its values, some of them ahead of it.

Tests used:
[1] = Plasma pharmacokinetics after single and multiple oral administration of A. paniculata aqueous extract capsules in healthy participants (HPLC-MS/MS, non-compartmental analysis); type: in vivo, human; design: MRT: unit: h; Cmax: unit: ng/mL
Protocol: (§1) An opened-label, two-dosage, single- and multiple-oral dosing, single center, phase I safety and pharmacokinetic study was conducted in healthy participants while they were under a fasting condition. […] Two weeks prior to the beginning of the clinical study, the volunteers were advised to abstain from other dietary supplements, herbal products, or any concomitant medicines. During the period of the study, no other medications were allowed. All participants fasted overnight for at least 8 h before drug administration. The study conducted a single-dose investigation on day 1 by oral administering A. paniculata extract capsules once in both groups. Twelve participants in group 1 received 3 capsules orally (equivalent to 60 mg of andrographolide) with 240 mL of water, while another twelve participants in group 2 received 6 capsules (equivalent to 120 mg of andrographolide). This was followed by serial blood sampling for up to 24 h after dosing. For blood collection, 6 mL of venous blood in EDTA tube was collected via a forearm vein catheter at each time point including pre-dose (0 h), and post-dose after oral administration (T 0.167, 0.333, 0.5, 0.75, 1, 1.5, 2, 4, 6, 8, 10, 12 and 24 h). Subsequently, observation of elimination continued until 48 h post-dose to ensure complete excretion of the major active diterpenoids through urine. Urine samples were collected at day 0 (the day prior to dosing) and day 1–2 (T 0–4, 4–8, 8–12,12–24, 24–32, 32–40, and 40–48 h after dosing). The study then proceeded to investigate multiple doses in both groups by administering continuous oral doses from day 3 until the morning of day 5. (dosing at T48, 56, 64, 72, 80, 88, and 96 h). In group 1, three capsules were administered orally before meals, three times a day (3 × 3 capsules at 8-h intervals, calculated as 180 mg/day of andrographolide); whereas in group 2, six capsules were administered daily, three times a day (6 × 3 capsules at 8-h intervals, calculated as 360 mg/day of andrographolide). For serial blood sampling of multiple doses, 6 mL of blood samples were collected starting in the morning of day 5 (sampling timepoints T 96, 96.167, 96.333, 96.5, 96.75, 97, 97.5, 98, 100, 102, and 104 h post dose).
(§2) All collected blood samples were centrifuged at 4,000 rpm, 4^οC, for 5 min. Plasma was collected and stored in cryotubes at −70^οC until analysis. Urine was kept as 10 mL aliquot samples at each time point and stored at −70^οC until analysis. Extraction was performed by protein precipitation method as previously reported ([Songvut et al., 2023]). Briefly, 50 µL of either a plasma or urine sample was mixed with 200 µL of methanol containing an internal standard (IS) of digoxin (50 ng/mL). Pretreated samples were vortexed for 10 min and were then centrifuged at 12,000 rpm, 4°C, for 10 min. The supernatants were filtered through a 0.2 µm PVDF membrane and were subsequently transferred to vials for HPLC-MS/MS analysis.
(§3) Hydrolysis of the glucuronidated and sulfated conjugates was conducted by enzymatic incubation as our previous published method ([Songvut et al., 2023]). To analyze the metabolic conjugations, 50 μL of either a plasma or urine sample was pre-incubated at 37^οC with 50 µL of either of β-glucuronidase in sodium phosphate buffer (pH 6.8) for 30 min, or sulfatase in sodium acetate buffer (pH 5) for 2 h. IS (50 ng/mL) was then added along with 150 μL of methanol to precipitate protein. The extracted samples were then vortexed and centrifuged at 12,000 rpm, 4^οC, for 10 min. The supernatants were collected by filtering through a 0.2-µm PVDF membrane before HPLC-MS/MS injection.
(§4) Analysis for the concentrations of targeted compounds in plasma and urine samples were carried out using HPLC-MS/MS at the Laboratory of Pharmacology, Chulabhorn Research Institute, Bangkok, Thailand. The quantitative determination was performed according to a previously validated method ([Songvut et al., 2023]). […]

[2] = Cumulative urinary excretion after single oral administration of A. paniculata aqueous extract capsules in healthy participants; type: in vivo, human; settings: urine T 0–48 h
Protocol: as §1, §2, §3, §4

[3] = single oral dose equivalent to 60 mg andrographolide, n = 12, mean ± SD
[4] = single oral dose equivalent to 120 mg andrographolide, n = 11, mean ± SD
[5] = multiple oral doses 60 mg × 3 times/day of andrographolide, n = 12, mean ± SD
[6] = multiple oral doses 60 mg × 3 times/day of andrographolide, n = 12, median [IQR]
[7] = multiple oral doses 120 mg × 3 times/day of andrographolide, n = 11, mean ± SD
[8] = multiple oral doses 120 mg × 3 times/day of andrographolide, n = 11, median [IQR]
[9] = single oral dose equivalent to 60 mg andrographolide, n = 12, median [IQR]
[10] = single oral dose equivalent to 120 mg andrographolide, n = 11, median [IQR]

CL/F ([1]; human, plasma, multiple oral doses 60 mg × 3 times/day of andrographolide, n = 12, mean ± SD): 255 mL/min/kg
AUC(0-t) ([1]; human, plasma, multiple oral doses 60 mg × 3 times/day of andrographolide, n = 12, mean ± SD, read-out: AUC(0–8h)): 11.3 ± 3.3 ng·h/mL
MRT ([1]; human, plasma, multiple oral doses 60 mg × 3 times/day of andrographolide, n = 12, mean ± SD, read-out: MRT): 1.5 ± 0.11 h
Vd/F ([1]; human, plasma, multiple oral doses 60 mg × 3 times/day of andrographolide, n = 12, mean ± SD, read-out: Vd/F): 5.4 ± 3.1 L/kg
half-life ([1]; human, plasma, multiple oral doses 60 mg × 3 times/day of andrographolide, n = 12, median [IQR]): 0.23 h
Tmax ([1]; human, plasma, multiple oral doses 60 mg × 3 times/day of andrographolide, n = 12, median [IQR], read-out: Tmax): 1 h
CL/F ([1]; human, plasma, multiple oral doses 120 mg × 3 times/day of andrographolide, n = 11, mean ± SD): 302 mL/min/kg
AUC(0-t) ([1]; human, plasma, multiple oral doses 120 mg × 3 times/day of andrographolide, n = 11, mean ± SD, read-out: AUC(0–8h)): 20 ± 9.1 ng·h/mL
MRT ([1]; human, plasma, multiple oral doses 120 mg × 3 times/day of andrographolide, n = 11, mean ± SD, read-out: MRT): 1.6 ± 0.07 h
Vd/F ([1]; human, plasma, multiple oral doses 120 mg × 3 times/day of andrographolide, n = 11, mean ± SD, read-out: Vd/F): 5.7 ± 2.8 L/kg
half-life ([1]; human, plasma, multiple oral doses 120 mg × 3 times/day of andrographolide, n = 11, median [IQR]): 0.21 h
Tmax ([1]; human, plasma, multiple oral doses 120 mg × 3 times/day of andrographolide, n = 11, median [IQR], read-out: Tmax): 1 h
Tmax ([1]; human, plasma, single oral dose equivalent to 60 mg andrographolide, n = 12, median [IQR], read-out: Tmax): 1 h
CL/F ([1]; human, plasma, single oral dose equivalent to 120 mg andrographolide, n = 11, mean ± SD): 293 mL/min/kg
AUC(0-inf) ([1]; human, plasma, single oral dose equivalent to 120 mg andrographolide, n = 11, mean ± SD, read-out: AUC(0-inf)): 20.5 ± 8.8 ng·h/mL
AUC(0-t) ([1]; human, plasma, single oral dose equivalent to 120 mg andrographolide, n = 11, mean ± SD, read-out: AUC(0–24h)): 20.5 ± 8.8 ng·h/mL
MRT ([1]; human, plasma, single oral dose equivalent to 120 mg andrographolide, n = 11, mean ± SD, read-out: MRT): 1.5 ± 0.08 h
Vd/F ([1]; human, plasma, single oral dose equivalent to 120 mg andrographolide, n = 11, mean ± SD, read-out: Vd/F): 5.5 ± 2.9 L/kg
half-life ([1]; human, plasma, single oral dose equivalent to 120 mg andrographolide, n = 11, median [IQR]): 0.21 h
Tmax ([1]; human, plasma, single oral dose equivalent to 120 mg andrographolide, n = 11, median [IQR], read-out: Tmax): 1 h
Cmax ([1]; human, multiple oral doses 60 mg × 3 times/day of andrographolide, plasma T 0–8 h, n = 12, mean ± SD, read-out: Cmax): 6.6 ± 1.9 ng/mL
Cmax ([1]; human, multiple oral doses 120 mg × 3 times/day of andrographolide, plasma T 0–8 h, n = 11, mean ± SD, read-out: Cmax): 11.3 ± 5.5 ng/mL
Cmax ([1]; human, single oral dose equivalent to 60 mg andrographolide, plasma T 0–24 h, n = 12, mean ± SD, read-out: Cmax): 4.2 ± 3.4 ng/mL
Cmax ([1]; human, single oral dose equivalent to 120 mg andrographolide, plasma T 0–24 h, n = 11, mean ± SD, read-out: Cmax): 11.6 ± 5.4 ng/mL
Cumulative urine [2, 3]: 108 ± 36.5 µg
Cumulative urine [2, 4]: 199 ± 77.3 µg
SMILES: C=C1CC[C@@H]2[C@](C)(CO)[C@H](O)CC[C@@]2(C)[C@@H]1CCC1=CCOC1=O [14-Deoxyandrographolide, 14-deoxyandrographolide]

AUC(0–8h) [1, 5]: 329 ± 55.5 ng·h/mL
Cl/F [1, 5]: 16.3 ± 3.83 mL/min/kg
MRT [1, 5]: 3.0 ± 0.61 h
Vd/F [1, 5]: 2.6 ± 1.8 L/kg
Half life [1, 6]: 1.6[0.80] h
Tmax [1, 6]: 1.0[0.20] h
Cmax ([1]; multiple oral doses 60 mg × 3 times/day of andrographolide, plasma T 0–8 h, n = 12, mean ± SD): 137 ± 29.3 ng/mL
AUC(0–8h) [1, 7]: 693 ± 165 ng·h/mL
Cl/F [1, 7]: 14.2 ± 2.33 mL/min/kg
MRT [1, 7]: 4.5 ± 1.2 h
Vd/F [1, 7]: 4.4 ± 2.0 L/kg
Half life [1, 8]: 3.0[1.5] h
Tmax [1, 8]: 1.0[0.33] h
Cmax ([1]; multiple oral doses 120 mg × 3 times/day of andrographolide, plasma T 0–8 h, n = 11, mean ± SD): 237 ± 41.4 ng/mL
AUC(0-inf) [1, 3]: 328 ± 102 ng·h/mL
AUC(0–24h) [1, 3]: 328 ± 102 ng·h/mL
Cl/F [1, 3]: 18.3 ± 4.5 mL/min/kg
MRT [1, 3]: 4.3 ± 0.44 h
Vd/F [1, 3]: 2.1 ± 0.60 L/kg
Half life [1, 9]: 1.4[0.07] h
Tmax [1, 9]: 1.0[0.33] h
Cmax ([1]; single oral dose equivalent to 60 mg andrographolide, plasma T 0–24 h, n = 12, mean ± SD): 98.6 ± 40.3 ng/mL
AUC(0-inf) [1, 4]: 674 ± 274 ng·h/mL
AUC(0–24h) [1, 4]: 674 ± 274 ng·h/mL
Cl/F [1, 4]: 18.3 ± 6 mL/min/kg
MRT [1, 4]: 4.1 ± 0.65 h
Vd/F [1, 4]: 2.0 ± 0.69 L/kg
Half life [1, 10]: 1.2[0.06] h
Tmax [1, 10]: 1.5[0.25] h
Cmax ([1]; single oral dose equivalent to 120 mg andrographolide, plasma T 0–24 h, n = 11, mean ± SD): 211 ± 138 ng/mL
Cumulative urine [2, 3]: 70.6 ± 27.6 µg
Cumulative urine [2, 4]: 159 ± 56.8 µg
SMILES: C=C1CCC2C(C)(CO)C(O)CCC2(C)C1C=CC1=CCOC1=O (stereo not shown) [14-Deoxy-11,12-didehydroandrographolide, 14-deoxy-11, 12-didehydroandrographolide]
